Assay results from the supplement of paper PMC11208160.

Experiment: recombinant UMI read abundance after kanamycin selection (control-corrected) (log10(CPM+1)); higher = more efficient recombination; extreme values may be limits of the assay; sequences stand for … in AGTGCAGAGAAAATCGGCCAGTTTTCTCTGCCTGCAGTCCGCATGCCGTGGGACCCCTTGGGTTCTAACCTGTTGCCTAGATTTATGCAGCGGACTGCCTTTCTCCCAAAGTGATAAACCGG…AGGTTGGTTTCACT; site = the 11-nt donor
Summary of the method: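 Reported values are log10(CPM+1) from a pooled Escherichia coli screen of donor and donor-binding-loop pairs for the IS621 bridge recombinase. Selection used IPTG (0.07 mM) plus kanamycin, against unselected plating, each in two replicates. Recombinant UMIs were amplified across the donor–target junction, sequenced, converted to CPM, averaged over replicates and scaled by control-derived factors.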
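Note: IS621 bridge recombinase in Escherichia coli cells against a fixed T5 target plasmid.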

Sequence | recombinant UMI read abundance (log10)
GCTACTGCATGGACCGGTTTTCCCGGTAATCCGTATTTGCT (site GCTACTGCTTG) | 0
GCTAGTGCATGGACCGGTTTTCCCGGTAATCCGTATTTGGT (site ACTAGTGCTAC) | 1.31
GCTAGTGCATGGACCGGTTTTCCCGGTAATCCGTATTTGGT (site CCTAGTGCTAC) | 1.65
GCTAGTGCATGGACCGGTTTTCCCGGTAATCCGTATTTGGT (site GCTAGTGCTAC) | 1.73
GCTAGTGCATGGACCGGTTTTCCCGGTAATCCGTATTTGGT (site TCTAGTGCTAC) | 0.581
GCTATGGCATGGACCGGTTTTCCCGGTAATCCGTATTTGAA (site GCTATGGCTTT) | 1.55
GCTCCAACATGGACCGGTTTTCCCGGTAATCCGTATTTGAA (site GCTCCAACTTT) | 0.939
GCTCCAACATGGACCGGTTTTCCCGGTAATCCGTATTTGTA (site GATCCAACTTA) | 0.0429
GCTCCAACATGGACCGGTTTTCCCGGTAATCCGTATTTGTA (site GCTCCAACTTA) | 0.877
GCTCCAACATGGACCGGTTTTCCCGGTAATCCGTATTTGTA (site GGTCCAACTTA) | 0.0155
GCTCCAACATGGACCGGTTTTCCCGGTAATCCGTATTTGTA (site GTTCCAACTTA) | 0.481
GCTCCGACATGGACCGGTTTTCCCGGTAATCCGTATTTGGA (site GCTCCGACTTC) | 0.0323
GCTCGATCATGGACCGGTTTTCCCGGTAATCCGTATTTGGA (site GCTCGATCTTC) | 1.99
GCTCGTCCATGGACCGGTTTTCCCGGTAATCCGTATTTGAG (site GCTCGTCCTCT) | 0.0111
GCTCGTTCATGGACCGGTTTTCCCGGTAATCCGTATTTGAT (site GCTCGTTCTAT) | 1.25
GCTCTGTCATGGACCGGTTTTCCCGGTAATCCGTATTTGTT (site GCTCTGTCTAA) | 1.59
GCTGAATCATGGACCGGTTTTCCCGGTAATCCGTATTTGCA (site GCTGAATCTTG) | 1.83

Sequence | recombinant UMI read abundance (log10)
GCTGACGCATGGACCGGTTTTCCCGGTAATCCGTATTTGAT (site GCTGACGCTAT) | 1.53
GCTGCCTCATGGACCGGTTTTCCCGGTAATCCGTATTTGGT (site GCTGCCTCTAC) | 0.342
GCTGGTTCATGGACCGGTTTTCCCGGTAATCCGTATTTGTC (site GCTGGTTCTGA) | 0.00915
GCTTATACATGGACCGGTTTTCCCGGTAATCCGTATTTGCT (site GCTTATACTAG) | 0
GCTTGCCCATGGACCGGTTTTCCCGGTAATCCGTATTTGAG (site GCTTGCCCTAT) | 0.0201
GCTTGCCCATGGACCGGTTTTCCCGGTAATCCGTATTTGAG (site GCTTGCCCTCT) | 0.0701
GCTTGCCCATGGACCGGTTTTCCCGGTAATCCGTATTTGAG (site GCTTGCCCTGT) | 0
GCTTGCCCATGGACCGGTTTTCCCGGTAATCCGTATTTGAG (site GCTTGCCCTTT) | 0.107
GCTTGCCCATGGACCGGTTTTCCCGGTAATCCGTATTTGTT (site GCTTGCCCTAA) | 0.0266
GCTTGCCCATGGACCGGTTTTCCCGGTAATCCGTATTTGTT (site GCTTGCCCTAC) | 0.0939
GCTTGCCCATGGACCGGTTTTCCCGGTAATCCGTATTTGTT (site GCTTGCCCTAG) | 0
GCTTGCCCATGGACCGGTTTTCCCGGTAATCCGTATTTGTT (site GCTTGCCCTAT) | 0.013
GCTTGGACATGGACCGGTTTTCCCGGTAATCCGTATTTGAC (site GATTGGACTGT) | 0
GCTTGGACATGGACCGGTTTTCCCGGTAATCCGTATTTGAC (site GCTTGGACTGT) | 2.39
GCTTGGACATGGACCGGTTTTCCCGGTAATCCGTATTTGAC (site GGTTGGACTGT) | 0.132
GCTTGGACATGGACCGGTTTTCCCGGTAATCCGTATTTGAC (site GTTTGGACTGT) | 0.707
GCTTGGCCATGGACCGGTTTTCCCGGTAATCCGTATTTGAT (site GCTTGACCTAT) | 0.00769
